Measured values taken from US4695577A, “Anti-hypertensive agents” (University of Miami, priority 1979, dated 1987).

Columns and labels:
human urinary ACE = molecular target: T1, human urinary ACE (Homo sapiens, UniProt P12821); assay: ACE Activity Assay (hydrolysis of Benzoyl-GlyHisLeu); type: biochemical; details: purified human urinary ACE, in vitro, pH 8.0, 37° C; read-out: I50
T1 construct: The enzyme preparation was ACE purified from human urine; from tissue; host or cells: human urine
Protocol: These factors include the source of enzyme, its purity, the substrate used and its concentration, and the composition of the assay buffer. All I50 data reported herein have been performed with the same assay system and same enzyme (human urinary ACE) and with an approximately 1/2Km level of substrate and are therefore internally consistent.
To initiate the assay, 40 μl of enzyme and 10 μl of water or inhibitor dissolved in water were preincubated for five minutes at 37° C. […] To terminate the reaction, 1 ml of 0.1 M HCl was added, following which 1 ml of ethyl acetate was added. The mixture was agitated on a rotary mixer and centrifuged briefly to separate the phases.
An aliquot, 500 μl, of the ethyl acetate layer was transferred to a liquid scintillation vial containing 10 ml of Riafluor, trademark New England Nuclear Corporation, Boston, Mass. For determination of I50 values, enzyme activity in the presence of inhibitor at a series of different concentrations was compared to activity in the absence of inhibitor.

[1] = test system: Blood pressure response to angiotensin I; assay: Intravenous effectiveness: blood pressure response to angiotensin I in anesthetized rats; type: in vivo, rat; details: intravenous 2 μmol/kg
Protocol: Rats (190-290 g body weight) were fasted overnight and then anesthetized with intraperitoneal pentobarbital, 50-60 mg/kg. Tracheostomy was performed and the animals were ventilated mechanically. A cannula was inserted into a femoral vein for injection of angiotensin I, and a second cannula was inserted into a common carotid artery for direct measurement of arterial blood pressure. Heparin, 1,000 units, was injected via the femoral vein to prevent coagulation. Blood pressure was measured with a pressure transducer connected to a polygraph. The rats were injected with 400 ng/kg of angiotensin I in 20 μl of 0.9 g % NaCl; an amount of angiotensin I sufficient to raise mean arterial blood pressure by 35 mm Hg. After the responsiveness of a given rat to angiotensin I was established, the named compound at 23 μmole/kg (drug dissolved in 0.15 ml of H2 O plus 10 μl of 1 N NaHCO3 ), was given via a stomach tube. At timed intervals, the effects of 400 ng/kg of angiotensin I on mean arterial blood pressure were tested. Results are shown below:
Anesthetized rats were prepared as described in Example 35. After the responsiveness of a given rat to angiotensin I was established, the named compound, at 2 μmol/kg, in a volume of 15 μl of 0.01 N sodium bicarbonate, was injected via a femoral vein. At timed intervals, the effects of angiotensin I, 400 ng/kg, on mean arterial blood pressure were tested.

T1 sequence (P12821 30-1232 limits assumed): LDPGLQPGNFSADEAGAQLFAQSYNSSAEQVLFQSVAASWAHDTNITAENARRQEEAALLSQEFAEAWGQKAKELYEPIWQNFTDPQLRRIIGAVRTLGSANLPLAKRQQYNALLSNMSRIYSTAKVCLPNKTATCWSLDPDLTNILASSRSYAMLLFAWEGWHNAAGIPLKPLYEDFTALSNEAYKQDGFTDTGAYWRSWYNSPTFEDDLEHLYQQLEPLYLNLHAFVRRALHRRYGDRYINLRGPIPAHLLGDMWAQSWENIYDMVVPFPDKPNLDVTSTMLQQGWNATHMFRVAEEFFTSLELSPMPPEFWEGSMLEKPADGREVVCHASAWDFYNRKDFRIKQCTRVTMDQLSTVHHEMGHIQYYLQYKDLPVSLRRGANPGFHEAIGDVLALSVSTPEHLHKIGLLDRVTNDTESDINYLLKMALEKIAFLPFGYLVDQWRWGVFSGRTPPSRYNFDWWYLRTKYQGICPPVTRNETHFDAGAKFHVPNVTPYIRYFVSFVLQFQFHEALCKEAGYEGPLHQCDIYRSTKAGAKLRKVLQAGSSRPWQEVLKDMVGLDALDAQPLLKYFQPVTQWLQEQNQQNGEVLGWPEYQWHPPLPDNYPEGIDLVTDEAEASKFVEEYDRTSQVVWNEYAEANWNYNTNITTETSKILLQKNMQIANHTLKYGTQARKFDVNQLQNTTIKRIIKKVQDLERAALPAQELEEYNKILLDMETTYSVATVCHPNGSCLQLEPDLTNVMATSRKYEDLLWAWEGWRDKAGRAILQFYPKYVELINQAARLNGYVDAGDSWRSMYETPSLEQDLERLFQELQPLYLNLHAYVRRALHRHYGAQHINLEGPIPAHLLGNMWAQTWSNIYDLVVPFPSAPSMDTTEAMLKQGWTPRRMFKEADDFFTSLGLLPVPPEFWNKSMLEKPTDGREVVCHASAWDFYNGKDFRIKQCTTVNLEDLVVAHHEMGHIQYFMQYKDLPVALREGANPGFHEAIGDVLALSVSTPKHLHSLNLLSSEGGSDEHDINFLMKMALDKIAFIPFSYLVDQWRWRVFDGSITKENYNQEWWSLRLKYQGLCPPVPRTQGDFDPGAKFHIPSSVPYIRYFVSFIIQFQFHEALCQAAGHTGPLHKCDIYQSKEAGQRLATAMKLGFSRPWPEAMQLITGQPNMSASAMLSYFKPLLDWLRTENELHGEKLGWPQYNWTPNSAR

Row | Structure (SMILES) | IC50 (human urinary ACE) | Blood pressure response to 400 ng/kg angiotensin I ([1]; 3 min) | Blood pressure response to 400 ng/kg angiotensin I ([1]; 9 min) | Blood pressure response to 400 ng/kg angiotensin I ([1]; 13 min)
1 | C[C@H](CSC(=O)[C@H](Cc1ccccc1)NC(=O)C1CCCC1)C(=O)N1CCC[C@H]1C(=O)O [Example 24, N^α -[3-(N^α -cyclopentylcarbonyl-L-phenylalanylthio)-2-D-methylpropanoyl]-L-proline] | 7.5 nM |  |  | 
2 | C[C@H](CSC(=O)[C@H](Cc1ccccc1)NC(=O)OC(C)(C)C)C(=O)N1CCC[C@H]1C(=O)O [Example 13, N^α -[3-(N^α -Tertiary-Butyloxycarbonyl-L-Phenylalanylthio)-2-D-Methylpropanoyl]-L-Proline] | 34 nM | 19 % of control | 19 % of control | 22 % of control
